# Counter-ions that a name gives are not always drawn. Like-named read-outs stand apart in the source and are kept apart here.
# Tests used:
# MTT assay, HEK-293 = type: cell-based; conditions: human, HEK-293 cells; at 50 µM; triplicate; read-out: HEK-293 Cell Line (%cytotoxicity ±SEM)
# [1] = MTT assay, non-transfected 1321N1 astrocytoma cells; type: cell-based, human; conditions: human, non-transfected 1321N1 astrocytoma cells; at 50 µM; non-transfected astrocytoma 1321N1 cells; triplicate; read-out: H-1321N1 Cell Line (%cytotoxicity ±SEM)
# Protocol: A 96-well plate was used to plate 20,000 human 1321N1 astrocytoma cells and allowed for incubation for 24 h at temp of 37°C in CO2 (5%) incubator. Next to this, the prepared culture media was changed to media which was free from FBS, the test compounds were added and the incubation process was repeated. After incubation of 24 h, the serum free media from the wells was discarded, and 100 μL of the reagent i.e., MTT reagent was pipetted. Plate was then additionally incubated at 37°C for 4 h. Utilizing a microplate reader, absorbance was determined at 570 nm and 630 nm for calculation of cell viability (FLUOstarOmega Microplate Reader-BMG LABTECH GmbH, Ortenberg, Germany) ([Sauer et al., 2009]).
# MTT assay, HeLa = type: cell-based; conditions: human, HeLa cells; at 50 µM; triplicate; read-out: HeLa Cell Line (%cytotoxicity ±SEM)
# [2] = Aqueous solubility assay (UV absorption); type: physicochemical
# Protocol: In eppendorf tubes, over-saturated chemical solutions were prepared by mixing synthesized compound with PBS buffer (pH 7.4). To confirm compound saturation, suspensions were rapidly vortexed for 1 min, sonicated at ambient temperature for 10 min, and then incubated with overnight shaking. After that, compound suspensions were centrifuged at 15,000 RPM for 20 min. Supernatants were cautiously taken out of the tubes and filtered once more using 0.22 µm syringe filters. By using UV-vis absorption spectrometry with standard curves and an already-determined absorption extinction coefficient in the same buffer, the concentrations of the drug in the supernatants were identified.
# t-P2Y1 = target: T1, t-P2Y1 (Meleagris gallopavo, UniProt P49652); test: Calcium mobilization assay, t-P2Y1 transfected 1321N1 astrocytoma cells; type: cell-based; conditions: for IC50: Ca2+ mobilization inhibition, transfected 1321N1 cells, read-out: IC50 ± SEM t-P2Y1; for IC50 / inhibition at 100 µM: 100 μM ADP; for inhibition at 100 µM: 1321-N1, final conc of 100 μM
# T1 construct: host or cells: human 1321N1 astrocytoma cells, stably transfected
# T1 sequence (P49652 whole entry): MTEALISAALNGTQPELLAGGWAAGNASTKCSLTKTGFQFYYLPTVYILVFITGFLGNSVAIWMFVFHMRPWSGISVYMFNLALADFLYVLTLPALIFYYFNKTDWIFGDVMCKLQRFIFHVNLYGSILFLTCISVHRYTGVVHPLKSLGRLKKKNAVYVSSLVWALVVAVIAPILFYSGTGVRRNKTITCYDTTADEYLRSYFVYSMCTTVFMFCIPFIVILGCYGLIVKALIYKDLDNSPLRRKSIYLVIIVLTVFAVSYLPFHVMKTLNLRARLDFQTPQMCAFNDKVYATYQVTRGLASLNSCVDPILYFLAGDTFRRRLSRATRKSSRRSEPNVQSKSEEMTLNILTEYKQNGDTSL
# Protocol: (§1) Dr. Gary A. Weisman provided human-1321N1 astrocytoma cells that had been transfected by the tP2Y1R, hP2Y2R, hP2Y4R, and rP2Y6R and untransfected 1321N1 astrocytoma cells (University of Missouri Mo., Bond Life Science Center). The DMEM Dulbecco’s Modified Eagle -Medium (Gibco) was added in flasks to cultivate the cell line. 10% of the Fetal bovine serum was also added to the media together with 500 μg/mL of Geneticin (G418) and 1% of the Pen/Strep. The cells in T-75 flask were then cultured and incubated in a CO2 incubator which was maintained at (5%) and 37°C temperature until 90% of the cells were confluent. Throughout the experiment, cells were periodically checked for the confluency and strictly watched for the microbial contamination.
# (§2) The FLUOstar Galaxy (BMG LABTECH GmbH, Ortenberg, Germany) microplate reader with two injectors was used to measure the Ca^2+ fluorescence of synthetic compounds. For this assay, 1321N1 transfected cells (t-P2Y1, h-P2Y2, h-P2Y4, and r-P2Y6) were cultured in T-75 flask. When cells reached the confluency of 80%–90%, they were washed with PBS and then Trypsin was added. After trypsinization for 3 min, 20,000 cells/well were allowed to seed in a black wall and 96 well clear bottom plate which was coated with Poly-D-Lysine and allowed to incubate for 24 h in 37°C, 5% CO2 incubator. After incubation, 200 μL culture media was changed with 100 μL HBSS containing Fura-2 AM which is calcium chelating dye and allowed the plate to incubate for 45 min in dark at temp of 37°C in incubator which is maintained with carbon dioxide (5% CO2). After incubation for 45 min, synthesized molecules were added to HBSS washed cells in each well of 96 well plate and re-incubated for 30 min at 37°C. In next step, injection of the endogenous ligand such as ADP through the injector was followed by excitation and emission measurements of Fura-2 AM at 380/520 nm and 340/520. Final volume of the assay per well 200 μL. IC50 values were computed for the compounds displaying more than 50% of activity using Prism 5.0 software (Graph Pad., Inc., San Diego. California, United States) by using analysis i.e., nonlinear regression ([Kassack et al., 2002]; [Ullmann et al., 2005]).
# h-P2Y2 = target: T2, h-P2Y2 (Homo sapiens, UniProt P41231); test: Calcium mobilization assay, h-P2Y2 transfected 1321N1 astrocytoma cells; type: cell-based; conditions: 500 μM ATP; for IC50: Ca2+ mobilization inhibition, transfected 1321N1 cells, read-out: IC50 ± SEM h-P2Y2; for inhibition at 100 µM: 1321-N1, final conc of 100 μM
# T2 construct: host or cells: human 1321N1 astrocytoma cells, stably transfected
# T2 sequence (P41231 whole entry): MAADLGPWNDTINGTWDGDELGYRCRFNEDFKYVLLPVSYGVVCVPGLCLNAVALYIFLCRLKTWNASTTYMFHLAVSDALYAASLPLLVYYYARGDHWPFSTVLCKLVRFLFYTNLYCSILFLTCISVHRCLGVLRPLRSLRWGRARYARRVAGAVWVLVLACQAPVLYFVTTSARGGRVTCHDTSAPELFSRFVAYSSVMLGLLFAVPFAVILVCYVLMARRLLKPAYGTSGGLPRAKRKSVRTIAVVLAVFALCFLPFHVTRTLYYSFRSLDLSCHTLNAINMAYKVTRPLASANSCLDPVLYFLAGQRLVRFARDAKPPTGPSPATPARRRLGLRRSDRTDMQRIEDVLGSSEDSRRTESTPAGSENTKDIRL
# Protocol: as §1, §2
# h-P2Y4 = target: T3, h-P2Y4 (Homo sapiens, UniProt P51582); test: Calcium mobilization assay, h-P2Y4 transfected 1321N1 astrocytoma cells; type: cell-based; conditions: 500 μM UTP; for IC50: Ca2+ mobilization inhibition, transfected 1321N1 cells, read-out: IC50 ± SEM h-P2Y4; for inhibition at 100 µM: 1321-N1, final conc of 100 μM, read-out: % Inhibition h-P2Y4
# T3 construct: host or cells: human 1321N1 astrocytoma cells, stably transfected
# T3 sequence (P51582 whole entry): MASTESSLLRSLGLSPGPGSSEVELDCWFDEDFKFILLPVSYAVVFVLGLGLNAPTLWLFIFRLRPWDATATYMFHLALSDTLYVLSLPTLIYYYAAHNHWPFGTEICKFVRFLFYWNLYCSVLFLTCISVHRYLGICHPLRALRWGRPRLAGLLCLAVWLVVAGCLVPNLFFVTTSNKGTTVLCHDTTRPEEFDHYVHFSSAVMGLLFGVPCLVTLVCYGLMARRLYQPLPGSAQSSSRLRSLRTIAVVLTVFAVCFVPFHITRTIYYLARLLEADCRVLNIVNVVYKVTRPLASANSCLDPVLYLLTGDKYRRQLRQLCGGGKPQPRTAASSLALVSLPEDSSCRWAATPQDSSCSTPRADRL
# Protocol: as §1, §2
# r-P2Y6 = target: T4, r-P2Y6 (Rattus norvegicus, UniProt Q63371); test: Calcium mobilization assay, r-P2Y6 transfected 1321N1 astrocytoma cells; type: cell-based; conditions: for inhibition at 100 µM: 1321-N1, final conc of 100 μM; for inhibition at 100 µM / IC50: 100 μM of UDP; for IC50: Ca2+ mobilization inhibition, transfected 1321N1 cells, read-out: IC50 ± SEM r-P2Y6
# T4 construct: host or cells: human 1321N1 astrocytoma cells, stably transfected
# T4 sequence (Q63371 whole entry): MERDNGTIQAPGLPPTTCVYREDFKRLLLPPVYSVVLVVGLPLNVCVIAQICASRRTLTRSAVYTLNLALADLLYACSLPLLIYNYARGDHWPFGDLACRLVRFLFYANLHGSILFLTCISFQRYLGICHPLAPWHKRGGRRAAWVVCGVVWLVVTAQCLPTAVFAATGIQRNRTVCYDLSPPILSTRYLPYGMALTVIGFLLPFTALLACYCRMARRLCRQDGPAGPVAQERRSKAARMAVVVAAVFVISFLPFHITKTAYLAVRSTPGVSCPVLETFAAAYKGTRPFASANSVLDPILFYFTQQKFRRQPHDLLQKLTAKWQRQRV
# Protocol: as §1, §2
# [3] = was reported; cited from earlier work
# hP2Y1 = target: hP2Y1; design: method as in Peng et al., 2018; conditions: Figure 1, reported antagonist; ref Peng et al., 2018; cited from earlier work
# P2Y12 = test system: P2Y12; design: method as in Oestreich, 2010; Boldron et al., 2014; conditions: Figure 1, reported antagonists; ref Oestreich, 2010; Boldron et al., 2014; cited from earlier work
# P2X3 = test system: P2X3; design: method as in Bae et al., 2022; conditions: Figure 1, reported antagonist; ref Bae et al., 2022; cited from earlier work
IC50 (t-P2Y1),Structure (SMILES),"cytotoxicity at 24 h, 50 µM (MTT assay, HEK-293)","cytotoxicity at 24 h, 50 µM [1]","cytotoxicity at 24 h, 50 µM (MTT assay, HeLa)",melting point,inhibition at 100 µM (r-P2Y6),inhibition at 100 µM (h-P2Y4),inhibition at 100 µM (h-P2Y2),other results
14.6 ± 1.01 µM,"O=C(NS(=O)(=O)c1ccccc1)n1c(Cl)nc2ccccc21 [1q, 2-Chloro-N-(phenylsulfonyl)-1H-benzo [d]imidazole-1-carboxamide]",30.1 ± 0.2%,33.6 ± 0.7%,29.7 ± 1.1%,179 to 181 °C,48%,13%,,IC50 (h-P2Y2): 13.6 ± 1.97 µM
23.44 ± 0.22 µM,"O=C(NS(=O)(=O)c1ccc(-c2ccccc2)cc1)n1c(Cl)nc2ccccc21 [1r, N-([1.1′-biphenyl]-4-ylsulfonyl)-2-chloro-1H-benzo [d]imidazole-1-carboxamide]",33.2 ± 0.1%,31.5 ± 0.4%,26.5 ± 0.5%,172 to 174 °C,34%,22%,47%,
3.11 ± 0.23 µM,"O=C(NS(=O)(=O)c1ccc(Cl)cc1)n1c(Cl)nc2ccccc21 [1s, 2-Chloro-N-((4-chlorophenyl)sulfonyl)-1H-benzo [d]imidazole-1-carboxamide]",12.1 ± 0.7%,14.4 ± 0.2%,19.5 ± 0.2%,180 to 182 °C,,,,IC50 (h-P2Y2): 6.15 ± 1.08 µM; IC50 (h-P2Y4): 2.67 ± 0.07 µM; IC50 (r-P2Y6): 12.7 ± 1.02 µM
6.04 ± 1.03 µM,"O=C(NS(=O)(=O)c1ccc([N+](=O)[O-])cc1)n1c(Cl)nc2ccccc21 [1t, 2-Chloro-N-((4-nitrophenyl)sulfonyl)-1H-benzo [d]imidazole-1-carboxamide]",21.4 ± 1.1%,27.6 ± 0.4%,20.3 ± 0.4%,166 to 168 °C,,26%,42%,IC50 (r-P2Y6): 12.4 ± 1.1 µM
,"COc1ccc(S(=O)(=O)NC(=O)n2c(OC)nc3ccccc32)cc1 [1u, 2-Methoxy-N-((4-methoxyphenyl)sulfonyl)-1H-benzo [d]imidazole-1-carboxamide]",32.2 ± 0.9%,25.5 ± 0.3%,21.7 ± 0.6%,177 to 179 °C,18%,30%,10%,inhibition at 100 µM (t-P2Y1): 31%
,"COc1nc2ccccc2n1C(=O)NS(=O)(=O)c1ccc(Cl)cc1 [1v, N-((4-chlorophenyl)sulfonyl)-2-methoxy-1H-benzo [d]imidazole-1-carboxamide]",12.2 ± 0.7%,19.7 ± 0.1%,24.1 ± 0.3%,152 to 154 °C,19%,23%,19%,inhibition at 100 µM (t-P2Y1): 42%
,"Cc1ccc(S(=O)(=O)NC(=O)n2c(N)nc3ccccc32)cc1 [1w, 2-Amino-N-tosyl-1H-benzo [d]imidazole-1-carboxamide]",27.4 ± 0.3%,23.2 ± 0.3%,21.3 ± 0.5%,165 to 167 °C,39%,41%,23%,inhibition at 100 µM (t-P2Y1): 49%
10 ± 0.12 µM,"Cc1ccc(S(=O)(=O)NC(=O)n2c(N)nc3cc(Cl)ccc32)cc1 [1x, 2-Amino-5-chloro-N-tosyl-1H-benzo [d]imidazole-1-carboxamide]",32.1 ± 0.7%,12.6 ± 0.5%,29.8 ± 1.5%,188 to 190 °C,41%,29%,38%,
,"Nc1nc2ccccc2n1C(=O)NS(=O)(=O)c1ccc(-c2ccccc2)cc1 [1y, N-([1.1′-biphenyl]-4-ylsulfonyl)-2-amino-1H-benzo [d]imidazole-1-carboxamide]",39.7 ± 0.2%,43.1 ± 0.8%,32.6 ± 0.3%,176 to 178 °C,23%,18%,20%,inhibition at 100 µM (t-P2Y1): 12%
,"CC(C)(C)c1ccccc1Oc1ncccc1NC(=O)Nc1ccc(OC(F)(F)F)cc1 [BPTU, 1-(2-(2-tert-butyl-phenoxy)pyridin-3-yl)-3–4-(trifluoromethoxy) phenylurea]",,,,,,,,solubility in water [3]: less than 0.1 mg/mL; Ki (hP2Y1): 0.006 µM
,CNc1cc2[nH]c(=O)n(-c3ccc(NC(=O)NS(=O)(=O)c4ccc(Cl)s4)cc3)c(=O)c2cc1F [Elinogrel],,,,,,,,IC50 (P2Y12): 0.02 µM
,Cc1nc2c([nH]1)C(=O)C(Cl)=C(Nc1ccc(F)c(F)c1)C2=O [KCB77033],,,,,,,,IC50 (P2X3): 1.03 µM
,CCCC(=O)c1cnn(-c2ccc(NC(=O)c3cn(CC(=O)N4CCNCC4)c4ccc(Cl)cc34)nn2)c1C [SAR 216471 hydrochloride],,,,,,,,IC50 (P2Y12): 0.017 µM

Structure (SMILES),IC50 (t-P2Y1),"cytotoxicity at 24 h, 50 µM (MTT assay, HEK-293)","cytotoxicity at 24 h, 50 µM [1]","cytotoxicity at 24 h, 50 µM (MTT assay, HeLa)",melting point,inhibition at 100 µM (r-P2Y6),inhibition at 100 µM (h-P2Y4),inhibition at 100 µM (h-P2Y2),other results
"Nc1nc2cc(Cl)ccc2n1C(=O)NS(=O)(=O)c1cc(Cl)cc(Cl)c1O [1h, 2-Amino-5-chloro-N-((3,5-dichloro-2-hydroxyphenyl)sulfonyl)-1H-benzo [d]imidazole-1-carboxamide]",0.19 ± 0.04 µM,27.4 ± 1.2%,32.8 ± 0.7%,22.3 ± 0.8%,124 to 126 °C,34%,,,"solubility ([2]; Figure 7, UV absorption at 384 nm): 287 µg/mL; solubility ([2]; aqueous buffer, thermodynamic from solid, PBS buffer (pH 7.4), UV absorption spectroscopy, read-out: aqueous solubility): 287 µg/mL; inhibition of P2Y2 less as compared to P2Y1 (t-P2Y1; P2Y2 versus P2Y1): 20 fold; IC50 (h-P2Y2): 4.13 ± 1.02 µM; IC50 (h-P2Y4): 0.91 ± 0.04 µM; activity against P2Y6 in words (r-P2Y6): inactive"
